According to patent publication US4172894A, “3-Thienyl-3-methyl-4-pentyl-2-pyridyl-ketone” (Laboratories Made, S.A., priority 1977, dated 1979):

How the values were obtained:
[1] = Acute toxicity in mice, intraperitoneal, deaths counted 48 hours after treatment (Litchfield-Wilcoxon); set-up: species or system Swiss I.C.R. albino mice; conditions: mouse, in vivo, ip, deaths at 48 hours, Litchfield-Wilcoxon test
Description: Acute toxicity study was made in Swiss I.C.R. albino mice of both sexes of 30±2 g of weight, kept without food for 24 hours prior to the experiment. Ambient temperature and relative humidity were kept constant. The products were administered intraperitoneally, and 48 hours after treatment the number of deaths was counted. Calculation of the lethal dose (LD50) was made by the Litchfield-Wilcoxon test.

Swiss I.C.R. albino mice [2] = assay: Thermal analgesia, 55° C. "hot plate" technique in mice; type: in vivo; conditions: 30 mg/kg, intraperitoneal, 30 minutes before 55° C. hot plate; control 38 ± 4.253
Description: The thermal analgesic effect was studied in Swiss I.C.R. albino mice. The 55° C. "hot plate" technique was used. Batches of 10 mice were made.
The products in study were administered intraperitoneally and after 30 minutes the mice were placed on the "hot plate", note having been made, in seconds, of the time it took them to jump. Batches of control animals were injected with only distilled water.

Swiss I.C.R. albino mice [3] = assay: Chemical analgesia, acetic acid writhing technique in mice; type: in vivo; conditions: 25 mg/kg, intraperitoneal, 30 minutes before 0.25 ml of 1% acetic acid; counted 20 minutes later; control 121.5 ± 7.184
Description: The analgesic effect was studied in Swiss I.C.R. albino mice with the acetic acid writhing technique. Batches of 10 mice were made.
The products in study were administered intraperitoneally, and 30 minutes later 0.25 ml of 1% acetic acid were injected intraperitoneally. A batch of control animals received only the acetic acid. Twenty minutes following administration of the acetic acid, the number of writhes in each mouse is counted.

SMILES | LD50 at 48 h [1] [mg/kg] | Jumping time (mean ± S.E.M.) (Swiss I.C.R. albino mice [2]) [see.] | No. of writhes (mean ± S.E.M.) (Swiss I.C.R. albino mice [3])
CCC(=O)O[C@](Cc1ccccc1)(c1ccccc1)[C@H](C)CN(C)C [Dextropropoxyphene, dextropropoxyphene] | 140 | 83.7 | 62.8
CCCCCc1ccnc(C(=O)c2ccsc2)c1C [Product I, 3-thienyl-3-methyl-4-pentyl-2-pyridyl-ketone] | 718 | 96.7 | 35.75
